Source: ChEMBL document CHEMBL3508693 (2016)
Each block holds one compound with its values, some of them ahead of it.

Tests used:
[1] = % of radioactivity recovered as M2 from M3 in plasma following intravenous administration of [14C] aliskiren hemifumarate at 10 mg.Kg-1 level in rat; assay type: ADME, organism-based, Albino HAN:WIST; conditions: in vivo
[2] = % aliskiren recovered as M2 from M3 of receiver rat following duodenal infusion of radioactivity through bile from donor rat treated with single intravenous administration of 10 mg.Kg-1 [14C] aliskiren hemifumarate; assay type: ADME, organism-based, HAN:WIST(SPF); conditions: in vivo
[3] = % of radioactivity recovered as M2 from M3 in faeces following intravenous administration of [14C] aliskiren hemifumarate at 10 mg.Kg-1 level in rat; assay type: ADME, organism-based, Albino HAN:WIST, Feces; conditions: in vivo
[4] = % aliskiren recovered as metabolite M2 in faeces following 10 day repeated oral administration of [14C] aliskiren hemifumarate at 100 mg.Kg-1 level studied in rat; assay type: ADME, organism-based, Albino HAN:WIST, Feces; conditions: in vivo, 240 h
[5] = % aliskiren hemifumarate (0-72h) recovered as M2 from M3 in faeces following single oral dose of [14C] aliskiren hemifumarate at 3 mg.Kg-1 level in marmoset; assay type: ADME, organism-based, Callithrix jacchus, Feces; conditions: in vivo
[6] = % of radioactivity recovered as M2 from M3 in urine following intravenous administration of [14C] aliskiren hemifumarate at 10 mg.Kg-1 level in rat; assay type: ADME, organism-based, Albino HAN:WIST; conditions: in vivo
[7] = % aliskiren recovered as M2 from M3 in bile following single intravenous administration of 10 mg.Kg-1 [14C] aliskiren hemifumarate in male rat; assay type: ADME, organism-based, HAN:WIST(SPF); conditions: in vivo
[8] = % aliskiren recovered as M2 from M3 in hydrolysed following single intravenous administration of 10 mg.Kg-1 [14C] aliskiren hemifumarate in male rat; assay type: ADME, organism-based, HAN:WIST(SPF), Bile; conditions: in vivo
[9] = % of radioactivity recovered as M2 from M3 in urine following oral administration of [14C] aliskiren hemifumarate at 100 mg.Kg-1 level in rat; assay type: ADME, organism-based, Albino HAN:WIST; conditions: in vivo
[10] = % aliskiren hemifumarate (0-168h) recovered as M2 from M3 in urine following single intravenous dose of [14C] aliskiren hemifumarate at 1 mg.Kg-1 level in marmoset; assay type: ADME, organism-based, Callithrix jacchus; conditions: in vivo
[11] = % aliskiren hemifumarate recovered as M2 from M3 in urine and faeces following single oral dose of 300 mg [14C]SPP100 studied in healthy men; assay type: ADME, organism-based, Urine/Feces; conditions: human, in vivo, at 300 mg
[12] = % of radioactivity recovered as M2 from M3 in plasma following oral administration of [14C] aliskiren hemifumarate at 100 mg.Kg-1 level in rat; assay type: ADME, organism-based, Albino HAN:WIST; conditions: in vivo
[13] = % aliskiren hemifumarate recovered as M2 from M3 in urine following single oral dose of 300 mg [14C]SPP100 studied in healthy men; assay type: ADME, organism-based; conditions: human, in vivo, at 300 mg
[14] = % aliskiren hemifumarate recovered as M2 from M3 in faeces following single oral dose of 300 mg [14C]SPP100 studied in healthy men; assay type: ADME, organism-based, Feces; conditions: human, in vivo, at 300 mg
[15] = % aliskiren recovered as M2 from M3 in urine following single intravenous administration of 10 mg.Kg-1 [14C] aliskiren hemifumarate in male rat; assay type: ADME, organism-based, HAN:WIST(SPF); conditions: in vivo
[16] = % aliskiren hemifumarate (0-72h) recovered as M2 from M3 in faeces following single intravenous dose of [14C] aliskiren hemifumarate at 1 mg.Kg-1 level in marmoset; assay type: ADME, organism-based, Callithrix jacchus, Feces; conditions: in vivo
[17] = % aliskiren recovered as metabolite M2 in urine following 10 day repeated oral administration of [14C] aliskiren hemifumarate at 100 mg.Kg-1 level studied in rat; assay type: ADME, organism-based, Albino HAN:WIST; conditions: in vivo, 240 h
[18] = % of radioactivity recovered as M2 from M3 in faeces following oral administration of [14C] aliskiren hemifumarate at 100 mg.Kg-1 level in rat; assay type: ADME, organism-based, Albino HAN:WIST, Feces; conditions: in vivo
[19] = % aliskiren hemifumarate (0-168h) recovered as M2 from M3 in urine following single oral dose of [14C] aliskiren hemifumarate at 3 mg.Kg-1 level in marmoset; assay type: ADME, organism-based, Callithrix jacchus; conditions: in vivo
[20] = % aliskiren recovered as metabolite M2 in plasma following 10 day repeated oral administration of [14C] aliskiren hemifumarate at 100 mg.Kg-1 level studied in rat; assay type: ADME, organism-based, Albino HAN:WIST; conditions: in vivo, 240 h
[21] = % aliskiren hemifumarate recovered as M3 in urine and faeces following single oral dose of 300 mg [14C]SPP100 studied in healthy men; assay type: ADME, organism-based, Urine/Feces; conditions: human, in vivo, at 300 mg
[22] = % aliskiren recovered as M3 in bile following single intravenous administration of 10 mg.Kg-1 [14C] aliskiren hemifumarate in male rat; assay type: ADME, organism-based, HAN:WIST(SPF); conditions: in vivo
[23] = % of radioactivity recovered as M3 in plasma following intravenous administration of [14C] aliskiren hemifumarate at 10 mg.Kg-1 level in rat; assay type: ADME, organism-based, Albino HAN:WIST; conditions: in vivo
[24] = % of radioactivity recovered as M3 in urine following intravenous administration of [14C] aliskiren hemifumarate at 10 mg.Kg-1 level in rat; assay type: ADME, organism-based, Albino HAN:WIST; conditions: in vivo
[25] = % aliskiren recovered as M3 in urine following single intravenous administration of 10 mg.Kg-1 [14C] aliskiren hemifumarate in male rat; assay type: ADME, organism-based, HAN:WIST(SPF); conditions: in vivo
[26] = % aliskiren recovered as M3 of receiver rat following duodenal infusion of radioactivity through bile from donor rat treated with single intravenous administration of 10 mg.Kg-1 [14C] aliskiren hemifumarate; assay type: ADME, organism-based, HAN:WIST(SPF); conditions: in vivo
[27] = % of radioactivity recovered as M3 in faeces following intravenous administration of [14C] aliskiren hemifumarate at 10 mg.Kg-1 level in rat; assay type: ADME, organism-based, Albino HAN:WIST, Feces; conditions: in vivo
[28] = % of radioactivity recovered as M3 in faeces following oral administration of [14C] aliskiren hemifumarate at 100 mg.Kg-1 level in rat; assay type: ADME, organism-based, Albino HAN:WIST, Feces; conditions: in vivo
[29] = % aliskiren hemifumarate recovered as M3 in urine following single oral dose of 300 mg [14C]SPP100 studied in healthy men; assay type: ADME, organism-based; conditions: human, in vivo, at 300 mg
[30] = % aliskiren hemifumarate (0-72h) recovered as M3 in faeces following single oral dose of [14C] aliskiren hemifumarate at 3 mg.Kg-1 level in marmoset; assay type: ADME, organism-based, Callithrix jacchus, Feces; conditions: in vivo
[31] = % aliskiren hemifumarate recovered as M3 in faeces following single oral dose of 300 mg [14C]SPP100 studied in healthy men; assay type: ADME, organism-based, Feces; conditions: human, in vivo, at 300 mg
[32] = % of radioactivity recovered as M3 in plasma following oral administration of [14C] aliskiren hemifumarate at 100 mg.Kg-1 level in rat; assay type: ADME, organism-based, Albino HAN:WIST; conditions: in vivo
[33] = % aliskiren recovered as M3 in hydrolysed following single intravenous administration of 10 mg.Kg-1 [14C] aliskiren hemifumarate in male rat; assay type: ADME, organism-based, HAN:WIST(SPF), Bile; conditions: in vivo
[34] = % aliskiren hemifumarate (0-168h) recovered as M3 in urine following single oral dose of [14C] aliskiren hemifumarate at 3 mg.Kg-1 level in marmoset; assay type: ADME, organism-based, Callithrix jacchus; conditions: in vivo
[35] = % of radioactivity recovered as M3 in urine following oral administration of [14C] aliskiren hemifumarate at 100 mg.Kg-1 level in rat; assay type: ADME, organism-based, Albino HAN:WIST; conditions: in vivo
[36] = % aliskiren hemifumarate (0-168h) recovered as M3 in urine following single intravenous dose of [14C] aliskiren hemifumarate at 1 mg.Kg-1 level in marmoset; assay type: ADME, organism-based, Callithrix jacchus; conditions: in vivo
[37] = % aliskiren hemifumarate (0-72h) recovered as M3 in faeces following single intravenous dose of [14C] aliskiren hemifumarate at 1 mg.Kg-1 level in marmoset; assay type: ADME, organism-based, Callithrix jacchus, Feces; conditions: in vivo

- Compound recovery [1]: <= 2%
- Compound recovery [2]: 15.4%
- Compound recovery [3]: > 2%
- Compound recovery [5]: 2%
- Compound recovery [6]: <= 2%
- Compound recovery [7]: 7.4%
- Compound recovery [8]: 10.2%
- Compound recovery [9]: <= 2%
- Compound recovery [10]: 0.1%
- Compound recovery [11]: 0.6%
- Compound recovery [12]: <= 2%
- Compound recovery [13]: < 0.1%
- Compound recovery [14]: 0.5%
- Compound recovery [15]: 2.9%
- Compound recovery [16]: 6%
- Compound recovery [18]: <= 2%
- Compound recovery [19]: 0.1%
Structure (SMILES): COc1ccc(C[C@@H](C[C@H](N)[C@@H](O)C[C@H](C(=O)NCC(C)(C)C(N)=O)C(C)C)C(C)C)cc1OCCC(=O)O
- Compound recovery [4]: OUTCOME = Observed, VALUE = Minor amounts
- Compound recovery [17]: OUTCOME = Observed, VALUE = Minor amounts
- Compound recovery [20]: OUTCOME = Observed, VALUE = Minor amounts

- Compound recovery [21]: < 0.6%
- Compound recovery [22]: 15.9%
- Compound recovery [24]: <= 2%
- Compound recovery [25]: 4.7%
- Compound recovery [26]: 15.2%
- Compound recovery [27]: > 2%
- Compound recovery [28]: <= 2%
- Compound recovery [29]: < 0.1%
- Compound recovery [30]: 2%
- Compound recovery [31]: 0.6%
- Compound recovery [32]: <= 2%
- Compound recovery [33]: 15.5%
- Compound recovery [34]: 0.1%
- Compound recovery [35]: <= 2%
- Compound recovery [36]: 0.4%
- Compound recovery [37]: 17%
Structure (SMILES): COc1ccc(C[C@@H](C[C@H](N)[C@@H](O)C[C@H](C(=O)NCC(C)(C)C(N)=O)C(C)C)C(C)C)cc1OCCCO
- Compound recovery [23]: OUTCOME = Not detected or not investigated
